Laboratory results from patent publication EP1263444B1, “USE OF XANTHINE DERIVATIVES FOR PREPARING A MEDICINE FOR PREVENTING AND TREATING OSTEOPOROSIS” (Aventis Pharma S.A., priority 2000, dated 2001).

Key:
Format in all cases: in vivo
rate ovariectomisée [1] = assay: Bone mineral density (DEXA) of the left tibia in the ovariectomised rat osteopenia model, preventive treatment; settings: 10 mg/kg po, once daily, 5 days/week for 4 weeks; (BMD treated - BMD OVX)/(BMD SHAM - BMD OVX) x 100
Source text: (§1) L'impact osseux des dérivés de xanthine selon l'invention a été évalué sur un modèle d'ostéopénie, la rate ovariectomisée à l'âge de 3 mois, afin de déterminer son effet sur la masse osseuse, et sur l'activité de formation et de résorption osseuse sur ce modèle. Les animaux sont traités en préventif.
(§2) Sur ce modèle d'ostéopénie l'effet d'un dérivé xanthine est comparé à celui de la PTH • Produit à tester : Le [1-(3-phénylxanthin-1-yl)méthyl] diméthylphosphine oxide • véhicule(s) : méthylcellulose 0,5 % ou sérum physiologique • dose(s) : 10 mg/kg pour le produit. la PTH est administrée à la dose de 10 et 25 µg/kg/j par voie sous cutanée • nombre d'administrations : une fois/jour; 5 jours/semaine pendant 4 semaines • voie d'administration : voie orale pour le produit. La PTH est administrée par voie sous cutanée • volume : 1 ml/kg p o et s c • délai entre l'injection et le sacrifice : 24 heures • nombre d'administrations : 20.
(§3) Des rats femelles âgées de 3 mois et pesant environ 250-300 g sont ovariectomisées sous anesthésie à l'Imalgène 1000, à la dose de 100 mg/kg par voie intrapéritonéale (i.p) et sous un volume de 1 ml/kg. Ils reçoivent également du Nembutal (3 mg/kg i.p. sous un volume de 0,3 ml/kg). Les animaux sont répartis en groupes de 8 rats.
(§4) Après incision latérale, les plans cutanés et musculaires sont sectionnés. L'exérèse de chaque ovaire se fait après ligature de l'oviducte. […]

rate ovariectomisée [2] = assay: Serum cholesterol level in the ovariectomised rat model; settings: 10 mg/kg po, 4 weeks, decrease of serum cholesterol in % versus OVX animals receiving solvent only
Source text: as §1, §2, §3, §4

rate ovariectomisée [3] = assay: Uterus weight in the ovariectomised rat model; settings: 10 mg/kg po, 4 weeks, weight increase in % of uterus weight of OVX animals receiving solvent only
Source text: as §1, §2, §3, §4

## CP(C)(=O)Cn1c(=O)c2[nH]cnc2n(-c2ccccc2)c1=O [Dérivé xanthine, [1-(3-phénylxanthin-1-yl)méthyl] diméthylphosphine oxide]
Rate ovariectomisée [1]
  OS TIBIA Densité %: 40%
Rate ovariectomisée [2]
  Cholestérol %: Pas d'effet
Rate ovariectomisée [2]; listed as Ce produit
  Cholestérol %: pas d'effet
Rate ovariectomisée [3]
  UTERUS Poids %: 10%
Rate ovariectomisée [3]; listed as Ce produit
  UTERUS Poids %: aucune activité utérotrophique
